Measured values: PMC8364686, “Safety, tolerability, pharmacokinetics and pharmacodynamics of single oral doses of BI 187004, an inhibitor of 11beta-hydroxysteroid dehydrogenase-1, in healthy male volunteers with overweight or obesity” (Clinical Diabetes and Endocrinology, 2021)

Tested on: hypothalamus–pituitary–adrenal axis hormones
Assay: Hormones of the HPA axis: difference from baseline
Format: in vivo, human
Procedure: Safety and tolerability of BI 187004 were assessed in a descriptive way using the following investigations: recording of adverse events, clinical laboratory parameters (haematology, coagulation, enzymes, substrates, electrolytes, hormones, and urinalysis), vital signs (blood pressure, puls rate), 12-lead ECG (electrocardiogram) with special attention to QTc prolongation, and physical examination (occurrence of findings).

## N#Cc1ccc2c(c1)[C@H]1CCCN(C(=O)c3ccc4[nH]cnc4c3)[C@H]1C2 [BI 187004]
2.5 mg single oral dose, 24:00
  ACTH mean difference from baseline: 0.59 pmol/L
  Androstenedione mean difference from baseline: 0.2 nmol/L
  Cortisol mean difference from baseline: -77.1 nmol/L
  DHEA-s mean difference from baseline: 0.7 µmol/L
  SHBG mean difference from baseline: 2.6 nmol/L
  Total Testosterone mean difference from baseline: 0.1 nmol/L
2.5 mg single oral dose, 96:00
  ACTH mean difference from baseline: -0.46 pmol/L
  Androstenedione mean difference from baseline: -1.8 nmol/L
  Cortisol mean difference from baseline: -65.3 nmol/L
  DHEA-s mean difference from baseline: 2.1 µmol/L
  SHBG mean difference from baseline: -0.1 nmol/L
  Total Testosterone mean difference from baseline: -0.3 nmol/L
5 mg single oral dose, 24:00
  ACTH mean difference from baseline: 0.53 pmol/L
  Androstenedione mean difference from baseline: 1.2 nmol/L
  Cortisol mean difference from baseline: 1.8 nmol/L
  DHEA-s mean difference from baseline: 1.6 µmol/L
  SHBG mean difference from baseline: 3.0 nmol/L
  Total Testosterone mean difference from baseline: -0.9 nmol/L
5 mg single oral dose, 96:00
  ACTH mean difference from baseline: -1.65 pmol/L
  Androstenedione mean difference from baseline: -3.7 nmol/L
  Cortisol mean difference from baseline: -75.0 nmol/L
  DHEA-s mean difference from baseline: 0.9 µmol/L
  SHBG mean difference from baseline: 2.7 nmol/L
  Total Testosterone mean difference from baseline: -0.7 nmol/L
10 mg single oral dose, 24:00
  ACTH mean difference from baseline: 0.78 pmol/L
  Androstenedione mean difference from baseline: 1.3 nmol/L
  Cortisol mean difference from baseline: -78.7 nmol/L
  DHEA-s mean difference from baseline: 1.2 µmol/L
  SHBG mean difference from baseline: 3.4 nmol/L
  Total Testosterone mean difference from baseline: -0.2 nmol/L
10 mg single oral dose, 96:00
  ACTH mean difference from baseline: -1.35 pmol/L
  Androstenedione mean difference from baseline: -3.4 nmol/L
  Cortisol mean difference from baseline: -128.8 nmol/L
  DHEA-s mean difference from baseline: 1.9 µmol/L
  SHBG mean difference from baseline: 0.2 nmol/L
  Total Testosterone mean difference from baseline: -2.0 nmol/L
20 mg single oral dose, 24:00
  ACTH mean difference from baseline: 1.53 pmol/L
  Androstenedione mean difference from baseline: 3.7 nmol/L
  Cortisol mean difference from baseline: 18.4 nmol/L
  DHEA-s mean difference from baseline: 2.2 µmol/L
  SHBG mean difference from baseline: 2.9 nmol/L
  Total Testosterone mean difference from baseline: -1.3 nmol/L
20 mg single oral dose, 96:00
  ACTH mean difference from baseline: -0.58 pmol/L
  Androstenedione mean difference from baseline: 3.8 nmol/L
  Cortisol mean difference from baseline: -34.1 nmol/L
  DHEA-s mean difference from baseline: 2.1 µmol/L
  SHBG mean difference from baseline: 1.3 nmol/L
  Total Testosterone mean difference from baseline: -1.0 nmol/L
40 mg single oral dose, 24:00
  ACTH mean difference from baseline: 1.44 pmol/L
  Androstenedione mean difference from baseline: 3.7 nmol/L
  Cortisol mean difference from baseline: -48.8 nmol/L
  DHEA-s mean difference from baseline: 1.7 µmol/L
  SHBG mean difference from baseline: 0.6 nmol/L
  Total Testosterone mean difference from baseline: -0.5 nmol/L
40 mg single oral dose, 96:00
  ACTH mean difference from baseline: -0.01 pmol/L
  Androstenedione mean difference from baseline: 0.1 nmol/L
  Cortisol mean difference from baseline: -75.5 nmol/L
  DHEA-s mean difference from baseline: 2.3 µmol/L
  SHBG mean difference from baseline: -1.8 nmol/L
  Total Testosterone mean difference from baseline: -0.8 nmol/L
80 mg single oral dose, 24:00
  ACTH mean difference from baseline: 4.69 pmol/L
  Androstenedione mean difference from baseline: 8.1 nmol/L
  Cortisol mean difference from baseline: 102.6 nmol/L
  DHEA-s mean difference from baseline: 2.6 µmol/L
  SHBG mean difference from baseline: 2.1 nmol/L
  Total Testosterone mean difference from baseline: 0.8 nmol/L
80 mg single oral dose, 96:00
  ACTH mean difference from baseline: 1.36 pmol/L
  Androstenedione mean difference from baseline: 0.5 nmol/L
  Cortisol mean difference from baseline: -64.4 nmol/L
  DHEA-s mean difference from baseline: 2.4 µmol/L
  SHBG mean difference from baseline: -1.3 nmol/L
  Total Testosterone mean difference from baseline: 0.6 nmol/L
160 mg single oral dose, 24:00
  ACTH mean difference from baseline: 1.34 pmol/L
  Androstenedione mean difference from baseline: 2.6 nmol/L
  Cortisol mean difference from baseline: -49.2 nmol/L
  DHEA-s mean difference from baseline: 1.6 µmol/L
  SHBG mean difference from baseline: 1.9 nmol/L
  Total Testosterone mean difference from baseline: 1.0 nmol/L
160 mg single oral dose, 96:00
  ACTH mean difference from baseline: 0.05 pmol/L
  Androstenedione mean difference from baseline: 1.5 nmol/L
  Cortisol mean difference from baseline: -69.9 nmol/L
  DHEA-s mean difference from baseline: 2.2 µmol/L
  SHBG mean difference from baseline: -0.8 nmol/L
  Total Testosterone mean difference from baseline: 2.4 nmol/L
240 mg single oral dose, 24:00
  ACTH mean difference from baseline: 0.87 pmol/L
  Androstenedione mean difference from baseline: 5.0 nmol/L
  Cortisol mean difference from baseline: -7.3 nmol/L
  DHEA-s mean difference from baseline: 1.6 µmol/L
  SHBG mean difference from baseline: 2.3 nmol/L
  Total Testosterone mean difference from baseline: -2.8 nmol/L
240 mg single oral dose, 96:00
  ACTH mean difference from baseline: -0.27 pmol/L
  Androstenedione mean difference from baseline: 2.7 nmol/L
  Cortisol mean difference from baseline: -5.1 nmol/L
  DHEA-s mean difference from baseline: 2.3 µmol/L
  SHBG mean difference from baseline: 2.5 nmol/L
  Total Testosterone mean difference from baseline: -2.4 nmol/L
360 mg single oral dose, 24:00
  ACTH mean difference from baseline: 1.30 pmol/L
  Androstenedione mean difference from baseline: 3.2 nmol/L
  Cortisol mean difference from baseline: -40.0 nmol/L
  DHEA-s mean difference from baseline: 1.2 µmol/L
  SHBG mean difference from baseline: 0.9 nmol/L
  Total Testosterone mean difference from baseline: -0.3 nmol/L
360 mg single oral dose, 96:00
  ACTH mean difference from baseline: 0.38 pmol/L
  Androstenedione mean difference from baseline: -0.3 nmol/L
  Cortisol mean difference from baseline: -132.9 nmol/L
  DHEA-s mean difference from baseline: 1.6 µmol/L
  SHBG mean difference from baseline: -2.2 nmol/L
  Total Testosterone mean difference from baseline: 0.7 nmol/L
